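Method: 48-hour compound exposure of cells in 96-well plates, five concentrations, linear interpolation of endpoints. TGI is the concentration that stops growth completely.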
Key:
Assay in all cases: inhibition of tumour cell growth, NCI panel, 48 h
786-0 renal = system: 786-0 renal
A549 NSCLC = system: A549 NSCLC
ACHN renal = system: ACHN renal
BT-549 breast = system: BT-549 breast
CAKI-1 renal = system: CAKI-1 renal
CCRF-CEM leukemia = system: CCRF-CEM leukemia
COLO 205 colon = system: COLO 205 colon
DU-145 prostate = system: DU-145 prostate
EKVX NSCLC = system: EKVX NSCLC
HCC-2998 colon = system: HCC-2998 colon
HCT-116 colon = system: HCT-116 colon
HCT-15 colon = system: HCT-15 colon
HOP-92 NSCLC = system: HOP-92 NSCLC
HS 578T breast = system: HS 578T breast
HT29 colon = system: HT29 colon
IGROV1 ovarian = system: IGROV1 ovarian
K-562 leukemia = system: K-562 leukemia
KM12 colon = system: KM12 colon
LOX IMVI melanoma = system: LOX IMVI melanoma
M14 melanoma = system: M14 melanoma
MALME-3M melanoma = system: MALME-3M melanoma
MCF7 breast = system: MCF7 breast
MDA-MB-231 breast = system: MDA-MB-231 breast
MDA-MB-435 = system: MDA-MB-435
MDA-N = system: MDA-N
MOLT-4 leukemia = system: MOLT-4 leukemia
NCI-H23 lung = system: NCI-H23 lung
NCI-H460 lung = system: NCI-H460 lung
NCI-H522 lung = system: NCI-H522 lung
NCI/ADR-RES ovarian = system: NCI/ADR-RES ovarian
OVCAR-3 ovarian = system: OVCAR-3 ovarian
OVCAR-4 ovarian = system: OVCAR-4 ovarian
OVCAR-5 ovarian = system: OVCAR-5 ovarian
OVCAR-8 ovarian = system: OVCAR-8 ovarian
PC-3 prostate = system: PC-3 prostate
RPMI-8226 leukemia = system: RPMI-8226 leukemia
RXF 393 renal = system: RXF 393 renal
SF-268 CNS = system: SF-268 CNS
SF-295 CNS = system: SF-295 CNS
SF-539 CNS = system: SF-539 CNS
SK-MEL-2 melanoma = system: SK-MEL-2 melanoma
SK-MEL-28 melanoma = system: SK-MEL-28 melanoma
SK-MEL-5 melanoma = system: SK-MEL-5 melanoma
SK-OV-3 ovarian = system: SK-OV-3 ovarian
SN12C renal = system: SN12C renal
SNB-19 CNS = system: SNB-19 CNS
SNB-75 CNS = system: SNB-75 CNS
SR leukemia = system: SR leukemia
SW-620 colon = system: SW-620 colon
TK-10 renal = system: TK-10 renal
U251 CNS = system: U251 CNS
UACC-257 melanoma = system: UACC-257 melanoma
UACC-62 melanoma = system: UACC-62 melanoma
UO-31 renal = system: UO-31 renal
A498 renal = system: A498 renal
HL-60(TB) leukemia = system: HL-60(TB) leukemia
HOP-62 NSCLC = system: HOP-62 NSCLC
NCI-H226 lung = system: NCI-H226 lung

Q: Which TGI (786-0 renal) does the source give for `FC(F)(F)c1ccc(C2=N/S(c3ccccc3)=N\C(c3ccc(C(F)(F)F)cc3)=N/S(c3ccccc3)=N\2)cc1` (stereo not given) here?
A: > 100 µM

Q: What about the TGI (A549 NSCLC) of the same compound?
A: > 100 µM

Q: What about the TGI (ACHN renal) of the same compound?
A: > 100 µM

Q: What about the TGI (BT-549 breast) of the same compound?
A: > 100 µM

Q: And the TGI (CAKI-1 renal)?
A: > 100 µM

Q: What about the TGI (CCRF-CEM leukemia) of the same compound?
A: > 100 µM

Q: What about the TGI (COLO 205 colon) of the same compound?
A: > 100 µM

Q: And the TGI (DU-145 prostate)?
A: > 100 µM

Q: What about the TGI (EKVX NSCLC) of the same compound?
A: > 100 µM

Q: What about the TGI (HCC-2998 colon) of the same compound?
A: > 100 µM

Q: And the TGI (HCT-116 colon)?
A: > 100 µM

Q: What about the TGI (HCT-15 colon) of the same compound?
A: > 100 µM

Q: And the TGI (HOP-92 NSCLC)?
A: > 100 µM

Q: And the TGI (HS 578T breast)?
A: > 100 µM

Q: What about the TGI (HT29 colon) of the same compound?
A: > 100 µM

Q: And the TGI (IGROV1 ovarian)?
A: > 100 µM

Q: And the TGI (K-562 leukemia)?
A: > 100 µM

Q: What about the TGI (KM12 colon) of the same compound?
A: > 100 µM

Q: And the TGI (LOX IMVI melanoma)?
A: > 100 µM

Q: What about the TGI (M14 melanoma) of the same compound?
A: > 100 µM

Q: And the TGI (MALME-3M melanoma)?
A: > 100 µM

Q: And the TGI (MCF7 breast)?
A: > 100 µM

Q: And the TGI (MDA-MB-231 breast)?
A: > 100 µM

Q: And the TGI (MDA-MB-435)?
A: > 100 µM

Q: What about the TGI (MDA-N) of the same compound?
A: > 100 µM

Q: And the TGI (MOLT-4 leukemia)?
A: > 100 µM

Q: And the TGI (NCI-H23 lung)?
A: > 100 µM

Q: What about the TGI (NCI-H460 lung) of the same compound?
A: > 100 µM

Q: What about the TGI (NCI-H522 lung) of the same compound?
A: > 100 µM

Q: What about the TGI (NCI/ADR-RES ovarian) of the same compound?
A: > 100 µM

Q: What about the TGI (OVCAR-3 ovarian) of the same compound?
A: > 100 µM

Q: And the TGI (OVCAR-4 ovarian)?
A: > 100 µM

Q: And the TGI (OVCAR-5 ovarian)?
A: > 100 µM

Q: And the TGI (OVCAR-8 ovarian)?
A: > 100 µM

Q: What about the TGI (PC-3 prostate) of the same compound?
A: > 100 µM

Q: What about the TGI (RPMI-8226 leukemia) of the same compound?
A: > 100 µM

Q: What about the TGI (RXF 393 renal) of the same compound?
A: > 100 µM

Q: What about the TGI (SF-268 CNS) of the same compound?
A: > 100 µM

Q: And the TGI (SF-295 CNS)?
A: > 100 µM

Q: What about the TGI (SF-539 CNS) of the same compound?
A: > 100 µM

Q: What about the TGI (SK-MEL-2 melanoma) of the same compound?
A: > 100 µM

Q: What about the TGI (SK-MEL-28 melanoma) of the same compound?
A: > 100 µM

Q: What about the TGI (SK-MEL-5 melanoma) of the same compound?
A: > 100 µM

Q: And the TGI (SK-OV-3 ovarian)?
A: > 100 µM

Q: What about the TGI (SN12C renal) of the same compound?
A: > 100 µM

Q: What about the TGI (SNB-19 CNS) of the same compound?
A: > 100 µM

Q: What about the TGI (SNB-75 CNS) of the same compound?
A: > 100 µM

Q: And the TGI (SR leukemia)?
A: > 100 µM

Q: What about the TGI (SW-620 colon) of the same compound?
A: > 100 µM

Q: What about the TGI (TK-10 renal) of the same compound?
A: > 100 µM

Q: And the TGI (U251 CNS)?
A: > 100 µM

Q: And the TGI (UACC-257 melanoma)?
A: > 100 µM

Q: What about the TGI (UACC-62 melanoma) of the same compound?
A: > 100 µM

Q: And the TGI (UO-31 renal)?
A: > 100 µM

Q: `CSc1cc(Cl)c(C)cc1S(=O)(=O)NC(=O)Nc1ccc(Cl)cc1` was tested. Which TGI (786-0 renal) did it give?
A: > 100 µM

Q: And the TGI (A498 renal)?
A: > 100 µM

Q: And the TGI (A549 NSCLC)?
A: > 100 µM

Q: What about the TGI (ACHN renal) of the same compound?
A: > 100 µM

Q: What about the TGI (BT-549 breast) of the same compound?
A: > 100 µM

Q: What about the TGI (CAKI-1 renal) of the same compound?
A: > 100 µM

Q: And the TGI (CCRF-CEM leukemia)?
A: 39.2 µM

Q: What about the TGI (COLO 205 colon) of the same compound?
A: 29.8 µM

Q: What about the TGI (EKVX NSCLC) of the same compound?
A: 87.8 µM

Q: What about the TGI (HCC-2998 colon) of the same compound?
A: 38.4 µM

Q: What about the TGI (HCT-116 colon) of the same compound?
A: 35.7 µM

Q: What about the TGI (HCT-15 colon) of the same compound?
A: 84.1 µM

Q: And the TGI (HL-60(TB) leukemia)?
A: 28 µM

Q: What about the TGI (HOP-62 NSCLC) of the same compound?
A: 63.2 µM

Q: What about the TGI (HOP-92 NSCLC) of the same compound?
A: 45.5 µM

Q: What about the TGI (HS 578T breast) of the same compound?
A: > 100 µM

Q: And the TGI (HT29 colon)?
A: > 100 µM

Q: What about the TGI (IGROV1 ovarian) of the same compound?
A: > 100 µM

Q: And the TGI (K-562 leukemia)?
A: > 100 µM

Q: What about the TGI (KM12 colon) of the same compound?
A: 80.8 µM

Q: And the TGI (LOX IMVI melanoma)?
A: 52.5 µM

Q: What about the TGI (M14 melanoma) of the same compound?
A: > 100 µM

Q: What about the TGI (MALME-3M melanoma) of the same compound?
A: 85.1 µM

Q: What about the TGI (MCF7 breast) of the same compound?
A: > 100 µM

Q: And the TGI (MDA-MB-231 breast)?
A: > 100 µM

Q: And the TGI (MDA-MB-435)?
A: 88 µM

Q: What about the TGI (MDA-N) of the same compound?
A: > 100 µM

Q: And the TGI (MOLT-4 leukemia)?
A: 40.9 µM

Q: And the TGI (NCI-H226 lung)?
A: 45.1 µM

Q: What about the TGI (NCI-H23 lung) of the same compound?
A: 40.4 µM

Q: And the TGI (NCI-H460 lung)?
A: > 100 µM

Q: What about the TGI (NCI-H522 lung) of the same compound?
A: 41.4 µM

Q: And the TGI (NCI/ADR-RES ovarian)?
A: 97.1 µM

Q: What about the TGI (OVCAR-3 ovarian) of the same compound?
A: 74 µM

Q: And the TGI (OVCAR-4 ovarian)?
A: > 100 µM

Q: What about the TGI (OVCAR-5 ovarian) of the same compound?
A: > 100 µM

Q: And the TGI (OVCAR-8 ovarian)?
A: > 100 µM

Q: And the TGI (PC-3 prostate)?
A: > 100 µM

Q: What about the TGI (RPMI-8226 leukemia) of the same compound?
A: > 100 µM

Q: And the TGI (RXF 393 renal)?
A: 51.7 µM

Q: What about the TGI (SF-268 CNS) of the same compound?
A: > 100 µM

Q: What about the TGI (SF-295 CNS) of the same compound?
A: > 100 µM

Q: What about the TGI (SK-MEL-2 melanoma) of the same compound?
A: 49 µM

Q: What about the TGI (SK-MEL-28 melanoma) of the same compound?
A: > 100 µM

Q: What about the TGI (SK-MEL-5 melanoma) of the same compound?
A: 64.9 µM

Q: And the TGI (SK-OV-3 ovarian)?
A: > 100 µM

Q: And the TGI (SN12C renal)?
A: > 100 µM

Q: And the TGI (SNB-19 CNS)?
A: 92 µM

Q: What about the TGI (SNB-75 CNS) of the same compound?
A: 62.1 µM

Q: What about the TGI (SR leukemia) of the same compound?
A: > 100 µM

Q: And the TGI (SW-620 colon)?
A: 92.7 µM

Q: What about the TGI (TK-10 renal) of the same compound?
A: 81.5 µM

Q: What about the TGI (U251 CNS) of the same compound?
A: > 100 µM

Q: What about the TGI (UACC-257 melanoma) of the same compound?
A: 79.8 µM

Q: What about the TGI (UACC-62 melanoma) of the same compound?
A: 14.8 µM

Q: What about the TGI (UO-31 renal) of the same compound?
A: 31.5 µM
